Measured values taken from PubChem BioAssay AID1117330.
The source made the active and inactive calls. The rule behind the calls is not given here.

test system: HT-29 viability, CellTiter-Glo luminescence; experiment: cytotoxicity toward HT-29 cells – cell-based, CellTiter-Glo luminescence, IC50, dose response (AID 1117330)

SMILES | IC50
OCCN1CCN(CC/C=C2/c3ccccc3Sc3ccc(C(F)(F)F)cc32)CC1 | 1.81 µM
CCCCCCCCCCCCCC[N+](C)(C)C | 1.32 µM
O=C1[O][Bi][O]c2ccccc21 | > 20 µM (inactive)
O=C(O)C1(C(=O)O)CCC1.[NH2-].[NH2-].[Pt+2] | > 20 µM (inactive)
Cc1ccc([N+](=O)[O-])[c]2c1[O][Hg]2 | 1.44 µM
CC(=O)[O][Hg][c]1ccccc1 | 0.799 µM
